Reference: patent US20070249582A1, “Method of Treating Substance Abuse with Quetiapine” (ASTRAZENECA AB, priority 2001, published 2007)

Tested on: outpatients with bipolar disorder and cocaine dependence
[1] = baseline to exit, all evaluable patients
[2] = baseline to week 12, LOCF, p<0.003

OCCOCCN1CCN(C2=Nc3ccccc3Sc3ccccc32)CC1 [Quetiapine, 11-(4-[2-(2-hydroxyethoxy)ethyl]-1-piperazinyl)dibenzo[b,f][1.4]-thiazepine]
Mean amount spent on drugs at baseline (8 completers, baseline, past week): 80.8±105.4 $
Mean amount spent on drugs at exit (8 completers, week 12, past week): 10.0±17.7 $
Reduction in amount spent on drugs (8 subjects who completed all 12 weeks, p=0.043): 87%
Dollar amount spent on drugs [1]: did not decrease significantly
Percent of positive urine samples [1]: did not decrease significantly
Brief Psychiatric Rating Scale (BPRS) score [2]: improved significantly
Young Mania Rating Scale (YMRS) score [2]: improved significantly
Hamilton Depression Scale (HDRS) score (baseline to week 12, LOCF, p<0.003, mean maximum dose 312.5±95.6 mg/day): improved significantly
Cravings as measured by the cocaine craving questionnaire (CCQ) (baseline to week 12, p<0.05): significantly decreased
Tolerability (in vivo): well tolerated
Withdrawals because of side effects (in vivo): no subjects withdrawing because of side effects
